In patent publication US20250282724A1, “BENZOTRIAZOLE COMPOUND” (DAIICHI SANKYO COMPANY, LIMITED, priority 2022, published 2025):

How the values were obtained:
[1] = system: NQO1 activity in Hepa1c1c7 cells; test: NAD(P)H: quinone oxidoreductase-1 (NQO1) enzyme induction assay (in vitro); type: cell-based, mouse; settings: about 48 hr, ratio from the base without the compound; for fold induction at 0.4 µM: Mus musculus, Hepa-1c1c7, 400 nM of test compound; for activity ratio (NQO1 activity ratio): 400 nM of test compound
Procedure: The NQO1 assay was performed based on a previous report (Methods in Enzymology 2004; 382: 243-258). Hepa1c1c7 cells (mouse hepatocyte cell line, ATCC, cat. no. CRL-2026) were cultured in D-MEM medium containing 10% FBS and 1% penicillin/streptomycin (5% CO2, 37° C.), and seeded into 96-well plates (Corning REF. 353072) at 1×10^4 cells/well. A portion of the wells were prepared with medium only for background measurement without seeding cells. The next day, 400 nM of the test compound (0.004% of the final concentration in DMSO) dissolved in DMSO was added thereto, and the wells were incubated for about 48 hr. A well without adding the test compound was prepared for base activity assay in part.
Cell lysate (solution containing 0.8% digitonin, 2 mM EDTA), reaction solution (solution containing 25 mM Tris-HCl, 0.07% albumin, 0.01% Tween-20, 2 U/mL glucose-6-phosphate dehydrogenase, 5 μM flavin adenine dinucleotide, 1 μM glucose-6-phosphate, […] nicotinamide adenine dinucleotide phosphate, 0.03% 3-(4,5-dimethyl-2-thiazolyl)-2,5-diphenyltetrazolium bromide (MTT), and 50 μM menadione), stop solution (solution containing 0.3 mM dicoumarol and 5 mM potassium dihydrogen phosphate, pH 7.4) were prepared. After the medium was removed, 50 μL of the cell lysate was added and incubated at 37° C. for 10 minutes, followed by shaking at room temperature for 10 minutes. 200 μL of reaction solution was added thereto, and allowed to stand for 5 minutes at room temperature. 50 μL of the stop solution was added thereto, and absorbance was measured at 610 nm on a SpectraMax PLUS384 (Molecular devices) or POWERSCAN HT (DS Pharma Biomedical). The test results were analyzed in Excel, and the NQO1 activity upon addition of 400 nM of test compound was calculated as a ratio from the base without the compound.
The results of each test compound in this test are shown in the following Table 2 (A:5<NQO1 activity ratio, B:3<NQO1 activity ratio≤5).

[2] = Measurement test of plasma drug concentration after oral administration in rats; type: in vivo, rat; settings: 10 mg/2 mL/kg oral, suspended in 0.5% methylcellulose, male SD rats
Procedure: 10 mg/2 mL/kg of the test compound suspended in 0.5% methylcellulose solution were force-fed to Male SD rats (7 weeks old, Japan SLC). Blood was collected from the jugular vein using a syringe with heparin at 0.5, 1, 2, 4, 6, and 24 hr after administration. After blood collection, to 20 μL of centrifuged plasma was added an equal volume of acetonitrile followed by 200 μL of internal standard (IS) solution. After agitation, all the supernatant after centrifugation was filtered, and the collected filtrate was used as the assay sample. Equal volumes of the test compound solution prepared in acetonitrile were added to blank plasma, and the samples processed in the same manner as above were used as samples for the calibration curve. The prepared samples were measured using LC/MS/MS, and the area under the blood concentration-time curve (AUC) was calculated from the compound concentration in plasma.

SMILES: Cc1c(C(CC(=O)O)c2cc3c(c(CN4CC5(CCOCC5)Oc5ncccc5S4(=O)=O)c2)CCC3)ccc2c1nnn2C (centres unmarked) [Example 33, 3-(1,4-Dimethyl-1H-benzotriazol-5-yl)-3-{7-[(1′,1′-dioxido-2,3,5,6-tetrahydrospiro[pyran-4,4′-pyrido[2,3-b][1,4,5]oxathiazepine]-2′ (3′H)-yl)methyl]-2,3-dihydro-1H-inden-5-yl}propanoic acid]
- fold induction at 0.4 µM [1]: > 5

SMILES: Cc1c([C@H](CC(=O)O)c2cc(CN3C[C@@H](C4CC4)Oc4ccc(O)nc4C3C)c3sccc3c2)cnc2c1nnn2C (single isomer, unassigned) [Example 85, (3R)-3-(7-{[(2R,5R*)-2-Cyclopropyl-7-hydroxy-5-methyl-2,3-dihydropyrido[2,3-f][1,4]oxazepin-4(5H)-yl]methyl}-1-benzothiophen-5-yl)-3-(3,7-dimethyl-3H-[1,2,3]triazolo[4,5-b]pyridin-6-yl)propanoic acid]
- activity ratio (NQO1 activity ratio) [1]: A (5<NQO1 activity ratio)

SMILES: CC[C@@H]1CN(Cc2cc(C(CC(=O)O)c3ccc4c(nnn4C)c3C)cc3c2CCC3)S(=O)(=O)c2ccc(Cl)cc2O1 (stereo partly drawn) [Example 15, 3-(7-{[(4R)-7-Chloro-4-ethyl-1,1-dioxido-3,4-dihydro-2H-5,1,2-benzoxathiazepin-2-yl]methyl}-2,3-dihydro-1H-inden-5-yl)-3-(1,4-dimethyl-1H-benzotriazol-5-yl)propanoic acid]
- fold induction at 0.4 µM [1]: > 5

SMILES: Cc1c(C(CC(=O)O)c2cc3c(c(CN4CC5(COC5)Oc5ncccc5S4(=O)=O)c2)CCC3)ccc2c1nnn2C (centres unmarked) [Example 36, 3-(1,4-Dimethyl-1H-benzotriazol-5-yl)-3-{7-[(1′,1′-dioxido-spiro[oxetane-3,4′-pyrido[2,3-b][1,4,5]oxathiazepine]-2′ (3′H)-yl)methyl]-2,3-dihydro-1H-inden-5-yl}propanoic acid]
- fold induction at 0.4 µM [1]: > 5

SMILES: CC[C@@H]1CN(Cc2cc([C@@H](CC(=O)O)c3cc(Cl)c4c(nnn4C)c3C)cc3c2CCC3)S(=O)(=O)c2cc(Cl)cnc2O1 [Example 97, (3R)-3-(7-Chloro-1,4-dimethyl-1H-benzotriazol-5-yl)-3-(7-{[(4R)-8-chloro-4-ethyl-1,1-dioxido-3,4-dihydro-2H-pyrido[2,3-b][1,4,5]oxathiazepin-2-yl]methyl}-2,3-dihydro-1H-inden-5-yl)propanoic acid]
- activity ratio (NQO1 activity ratio) [1]: A (5<NQO1 activity ratio)

SMILES: CC[C@@H]1CN(Cc2cc([C@@H](CC(=O)O)c3ccc4c(nnn4C)c3C)cc3ccsc23)S(=O)(=O)c2cc(Cl)cnc2O1 [Example 8, (3R)-3-(7-{[(4R)-8-Chloro-4-ethyl-1,1-dioxido-3,4-dihydro-2H-pyrido[2,3-b][1,4,5]oxathiazepin-2-yl]methyl}-1-benzothiophen-5-yl)-3-(1,4-dimethyl-1H-benzotriazol-5-yl)propanoic acid]
- maximam plasma concentration [2]: 0.005 µM

SMILES: CC[C@@H]1CN(Cc2cc([C@H](CC(=O)O)c3cc(Cl)c4c(nnn4C)c3C)cc3c2CCC3)S(=O)(=O)c2cc(Cl)cnc2O1 [Example 96, (3S)-3-(7-Chloro-1,4-dimethyl-1H-benzotriazol-5-yl)-3-(7-{[(4R)-8-chloro-4-ethyl-1,1-dioxido-3,4-dihydro-2H-pyrido[2,3-b][1,4,5]oxathiazepin-2-yl]methyl}-2,3-dihydro-1H-inden-5-yl)propanoic acid]
- activity ratio (NQO1 activity ratio) [1]: A (5<NQO1 activity ratio)

SMILES: CC[C@@H]1CN(Cc2cc([C@H](CC(=O)O)c3ccc4c(nnn4C)c3C)cc3ccsc23)S(=O)(=O)c2cc(Cl)cnc2O1 [Example 7, (3S)-3-(7-{[(4R)-8-Chloro-4-ethyl-1,1-dioxido-3,4-dihydro-2H-pyrido[2,3-b][1,4,5]oxathiazepin-2-yl]methyl}-1-benzothiophen-5-yl)-3-(1,4-dimethyl-1H-benzotriazol-5-yl)propanoic acid]
- maximam plasma concentration [2]: 0.009 µM

SMILES: CC[C@@H]1CN(Cc2cc([C@@H](CC(=O)O)c3ccc4c(nnn4C)c3C)cc3ccsc23)C(C)c2nc(O)ccc2O1 (single isomer, unassigned) [Example 78, (3R)-3-(1,4-Dimethyl-1H-benzotriazol-5-yl)-3-(7-{[(2R,5S*)-2-ethyl-7-hydroxy-5-methyl-2,3-dihydropyrido[2,3-f][1,4]oxazepin-4(5H)-yl]methyl}-1-benzothiophen-5-yl)propanoic acid]
- activity ratio (NQO1 activity ratio) [1]: A (5<NQO1 activity ratio)

SMILES: CC[C@@H]1CN(Cc2cc([C@@H](CC(=O)O)c3ccc4c(nnn4C)c3C)cc3c2CCC3)S(=O)(=O)c2cc(Cl)cnc2O1 [Example 5, (3R)-3-(7-{[(4R)-8-Chloro-4-ethyl-1,1-dioxido-3,4-dihydro-2H-pyrido[2,3-b][1,4,5]oxathiazepin-2-yl]methyl}-2,3-dihydro-1H-inden-5-yl)-3-(1,4-dimethyl-1H-benzotriazol-5-yl)propanoic acid]
- maximam plasma concentration [2]: 0.006 µM

SMILES: CC[C@@H]1CN(Cc2cc([C@H](CC(=O)O)c3ccc4c(nnn4C)c3C)cc3ccsc23)[C@@H](C)c2ncccc2O1 [Example 62, (3S)-3-(1,4-Dimethyl-1H-benzotriazol-5-yl)-3-(7-{[(2R,5S)-2-ethyl-5-methyl-2,3-dihydropyrido[2,3-f][1,4]oxazepin-4(5H)-yl]methyl}-1-benzothiophen-5-yl)propanoic acid]
- activity ratio (NQO1 activity ratio) [1]: A (5<NQO1 activity ratio)

SMILES: CC[C@@H]1CN(Cc2cc([C@H](CC(=O)O)c3ccc4c(nnn4C)c3C)cc3c2CCC3)S(=O)(=O)c2cc(Cl)cnc2O1 [Example 4, (3S)-3-(7-{[(4R)-8-Chloro-4-ethyl-1,1-dioxido-3,4-dihydro-2H-pyrido[2,3-b][1,4,5]oxathiazepin-2-yl]methyl}-2,3-dihydro-1H-inden-5-yl)-3-(1,4-dimethyl-1H-benzotriazol-5-yl)propanoic acid]
- maximam plasma concentration [2]: 0.029 µM

SMILES: Cc1c(C(CC(=O)O)c2cc3c(c(CN4CC5(CCC5)Oc5ncccc5S4(=O)=O)c2)CCC3)ccc2c1nnn2C (centres unmarked) [Example 35, 3-(1,4-Dimethyl-1H-benzotriazol-5-yl)-3-{7-[(1′,1′-dioxido-spiro[cyclobutane-1,4′-pyrido[2,3-b][1,4,5]oxathiazepine]-2′(3′H)-yl)methyl]-2,3-dihydro-1H-inden-5-yl}propanoic acid]
- fold induction at 0.4 µM [1]: > 5

SMILES: CC[C@@H]1CN(Cc2cc([C@@H](CC(=O)O)c3ccc4c(nnn4C)c3C)cc3c2CCC3)S(=O)(=O)c2cccc(Cl)c2O1 [Example 48, (3R)-3-(7-{[(4R)-6-Chloro-4-ethyl-1,1-dioxido-3,4-dihydro-2H-5,1,2-benzoxathiazepin-2-yl]methyl}-2,3-dihydro-1H-inden-5-yl)-3-(1,4-dimethyl-1H-benzotriazol-5-yl)propanoic acid]
- activity ratio (NQO1 activity ratio) [1]: A (5<NQO1 activity ratio)
